Measured values as given in patent US9241928B2, “Antimicrobial compounds” (The General Hospital Corporation, priority 2009, dated 2016).
Values after ≈ are worked out from the molar mass of the structure shown.

How the values were obtained:
PA14 = test: Growth of PA14 in presence of compound (data not shown); assay type: cell-based, Pseudomonas aeruginosa; conditions: 3.125 μg/mL
[1] = test system: P. aeruginosa strain PA14 infection in Caenorhabditis elegans; test: Liquid assay for PA14 infection of C. elegans; assay type: in vivo
Method: A liquid assay for PA14 infection of C. elegans in a 96-well plate format was developed. In brief, temperature-sterile glp-4 and glp-4;sek-1 worms were synchronized according to standard protocols. L1 larvae were plated, incubated for 16 hours at 15° C., and then for an additional 48 hours at […], which brought them to a young adult stage. In parallel, PA14 bacteria were grown overnight prior to being plated on SK medium plates (see Tan et al., Proc. Natl. Acad. Sci., 96(2): 715-720). PA14-inoculated plates were incubated for 24 hours at 37° C. prior to an 18 hours incubation at 25° C. Subsequently, bacteria were removed from plates and resuspended in S Basal media (see Stiernagle, (2006) “Maintenance of C. elegans” WormBook, ed. The C. elegans. Research Community http://www.wormbook.org/). 96-well polystyrene plates were prepared with a medium containing either 20% SK and 80% S Basal or 50% SK and 50% S Basal, with a bacterial density of OD600=0.03. […] Dispensation of 25 young adult glp-4 or glp-4; sek-1 worms to each well using a COPAS BioSort robot brought the final total volume to […]. After worms were added, each plate was sealed with a gas permeable membrane and incubated for 48 hours at 25° C. […] Worms were stained for 18 hours at 20° C. and each well was photographed using bright-field and red fluorescence channels with a Molecular Devices Discovery-1 Microscope.

E. faecalis MMH594 = test: MIC assay, E. faecalis in vitro; assay type: cell-based; conditions: Enterococcus faecalis; E. faecalis MMH594 in 20% BHI, 80% M9, 37° C., 15 hours, scored by eye
Method: A culture of E. faecalis MMH594 was grown overnight in BHI broth to stationary phase at 37° C. with aeration. The culture was diluted to an approximate density of […] in worm infection media (20% BHI, 80% M9 buffer). 12.5 μl of the bacterial culture dilution was inoculated into 384-well plates containing 12.5 μl of 2-fold serial dilutions of a test compound. […] Plates were incubated at 37° C. for 15 hours and scored by eye for bacterial growth.

[2] = test system: C. elegans infected with E. faecalis; test: Automated infection assay for primary compound screening (SYTOX staining, CELLPROFILER); assay type: in vivo, Caenorhabditis elegans
Method: In general, the area of each well that is SYTOX-positive in the fluorescence image is measured and normalized by the total area occupied by all worms, which is quantified in the bright field image. This typically requires illumination correction to flatten lighting abnormalities, adaptive thresholding, and size- and contrast-based filters and masks to exclude debris and other artifacts. By calculating the ratio of the fluorescent area (which corresponds to the area occupied by dead worms) to the total area occupied by all worms, one can accurately determine the number of dead worms in each well. […] In a well where the worms are rescued by ampicillin treatment, 3 of the 14 worms were dead based on manual scoring. The ratio of the fluorescent area to the area occupied by all worms obtained by the CELLPROFILER analysis is correspondingly low at 0.12.
glp-4(bn2); sek-1 (km4) mutant worms were grown to gravid adult stage. 1,000 worms at the L1 stage were grown for 5.2 days at 15° C. on 9-cm plates of SK agar media spread with a lawn of E. coli strain HB101. Embryos from the gravid adults were isolated by a previously described hypochlorite method (see Tan et al., (1999) Proc. Natl. Acad. Sci. USA 96, 715-720) and hatched at 15° C. for 2 days. Approximately 4,500 of the Ll hatchlings were grown on each 9-cm plate of SK-NS agar (SK media with 62.5 U/ml nystatin and 100 μg/ml streptomycin) and with lawns of E. coli HB101. These worms were grown at 25° C. for 52 hours to generate sterile, young adults.
A culture of E. faecalis MMH594 was grown in BHI broth (BD Difco) with 80 μg/ml kanamycin at 37° C. for 6 hours and 100 μl of the culture were spread onto each 9-cm plate of BHI agar containing 80 μg/mlkanamycin. Lawns of E. faecalis were grown at 25° C. for 16 hours and transferred to 15° C. for 8 hours.
Sterile adult worms were resuspended in M9 buffer and washed twice with M9 in a 1:10 ratio to remove E. coli. 8,000 worms were pipetted onto each lawn of E. faecalis and incubated 15 hours at 15° C. After infection, the worms were resuspended in M9 and used as described below. 384-well plates (Corning #3712) were filled with 55 μl media (see below) using a Thermo Scientific MULTIDROP Combi reagent dispenser. 0.3 μl of a candidate compound in DSMO were pin transferred into each well using a CyBio CYBI-Well vario transfer system. The plates were agitated using an Eppendorf MIXMATE at 1,800 rpm for 15 seconds. Using the Union Biometrica Complex Object Parametric Analyzer and Sorter (COPAS) BIOSORT worm sorter according to manufacturer's protocols, 15 of the infected worms were transferred to each well in a total volume of approximately 15 μl. Total volume per well is 70 μl/well with a final composition of the media being 20% BHI, […], 80 μg/ml kanamycin, 62.5 U/ml nystatin, 1% DMSO, and 19% sheath solution (Union Biometrica Part #300-5101-000). Plates were vortexed for 5 seconds, centrifuged at 1000×g for 10 seconds, and sealed with gas permeable membranes (BREATHEASY Diversified). Plates were placed in a single layer on the top shelves in a 26.3° C. incubator at 85% relative humidity (RH) and incubated without agitation for 5 days.
After 5 days, the bacteria and liquid media in the assay plates were removed as described below. First, the bacteria were re-suspended by shaking on the MIXMATE for 15 seconds at 1,800 rpm, the sealing membrane was removed, and the worms were allowed to settle to the bottom of the wells for 3 minutes. […]

Row | SMILES | effect on PA14 (growth) (PA14) | mortality of PA14-infected worms ([1]; 3.125 μg/mL, glp-4 and glp-4;sek-1 worms, 48 hours) [%] | effect of increasing the dosage on efficacy ([1]; 6.25 and 20 μg/mL versus 3.125 μg/mL) | MIC (E. faecalis MMH594) [µg/mL] | curing activity in the primary screen ([2]; primary screen) | retest in secondary screen ([2]; secondary experiment)
1 | NNc1ccc2c(Cl)cc(Cl)c(O)c2n1 [Compound 11] | unaffected | ≤ 30 | did not increase its efficacy | 6.25 (≈ 25.6 µM) | – | –
2 | Cc1ccc(Nc2nc(N)c3ccccc3n2)cc1Cl [Compound 26] | – | – | – | – | cured infected C. elegans | did not re-test
